Data taken from patent US20150218172A1, “Pyrrolo[2,3-D]Pyrimidine Tropomyosin-Related Kinase Inhibitors” (PFIZER LIMITED, priority 2012, published 2015).

Biological target: T1, TrkA (Homo sapiens, UniProt P04629)
T1 construct: aa 441-796; His; purchased Invitrogen PV3144
Experiment: Isolated TRK enzyme assay (HTRF KinEASE-TK kit), PV3144 TrkA enzyme assay
Type: biochemical
Conditions: PV3144 TrkA enzyme assay, recombinant His-tagged cytoplasmic domain aa 441-796, 4 nM enzyme, 40 uM ATP; arithmetic mean where more than one reading; read-out: Trka enzyme (IC50)
Procedure, shortened: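 Recombinant His-tagged cytoplasmic domain of human TrkA, preactivated with ATP for 20 min, then 20 min with compound before biotinylated TK substrate (1 uM final) at room temperature. HTRF read at 665/620 nm; % inhibition normalised to reference-compound and DMSO controls, IC50 from sigmoid fit, mean of replicates.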

T1 sequence (P04629 441-796): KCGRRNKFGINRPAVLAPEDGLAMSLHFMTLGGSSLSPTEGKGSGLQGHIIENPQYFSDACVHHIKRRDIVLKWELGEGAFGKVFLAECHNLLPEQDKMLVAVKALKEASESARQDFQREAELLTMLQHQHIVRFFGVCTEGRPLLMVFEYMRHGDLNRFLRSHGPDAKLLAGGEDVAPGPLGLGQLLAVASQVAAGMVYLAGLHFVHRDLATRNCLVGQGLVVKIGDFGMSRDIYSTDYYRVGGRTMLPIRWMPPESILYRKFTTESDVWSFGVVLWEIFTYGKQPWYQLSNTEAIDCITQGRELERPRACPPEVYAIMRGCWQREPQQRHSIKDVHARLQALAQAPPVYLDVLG

IC50 [nM] | Structure (SMILES)
136 | CC(C)n1cc(C(=O)c2cc(NC(=O)Cc3ccc(C#N)cn3)ccn2)c2cnc(N)nc21 [Example 63, N-(2-{[2-amino-7-(propan-2-yl)-7H-pyrrolo[2,3-d]pyrimidin-5-yl]carbonyl}pyridin-4-yl)-2-(5-cyanopyridin-2-yl)acetamide]
328 | Cc1cn(CC(=O)Nc2cc(C(=O)c3cn(C(C)C)c4ncncc34)ccn2)nn1 [Example 121, 2-(4-methyl-1H-1,2,3-triazol-1-yl)-N-(4-{[7-(propan-2-yl)-7H-pyrrolo[2,3-d]pyrimidin-5-yl]carbonyl}pyridin-2-yl)acetamide]
15.6 | CC(C)n1cc(C(=O)c2ccnc(NC(=O)Cc3ccc(Cl)cc3Cl)c2)c2cncnc21 [Example 157, 2-(2,4-dichlorophenyl)-N-(4-{[7-(propan-2-yl)-7H-pyrrolo[2,3-d]pyrimidin-5-yl]carbonyl}pyridin-2-yl)acetamide]
91.1 | CC(CO)(CO)n1cc(C(=O)c2cc(NC(=O)Cc3cccc(C(F)(F)F)c3)ccn2)c2cncnc21 [Example 104, N-(2-{[7-(1,3-dihydroxy-2-methylpropan-2-yl)-7H-pyrrolo[2,3-d]pyrimidin-5-yl]carbonyl}pyridin-4-yl)-2-[3-(trifluoromethyl)phenyl]acetamide]
94.8 | C[C@@H](CO)n1cc(C(=O)c2cc(NC(=O)Cc3ccc(C#N)cc3)ccn2)c2cncnc21 [Example 15, 2-(4-cyanophenyl)-N-[2-({7-[(2S)-1-hydroxypropan-2-yl]-7H-pyrrolo[2,3-d]pyrimidin-5-yl}carbonyl)pyridin-4-yl]acetamide]
226 | Cc1cc(C(=O)c2cn(C(C)C)c3ncncc23)cc(NC(=O)Cc2ccc(F)cc2)n1 [Example 77, 2-(4-fluorophenyl)-N-(6-methyl-4-{[7-(propan-2-yl)-7H-pyrrolo[2,3-d]pyrimidin-5-yl]carbonyl}pyridin-2-yl)acetamide]
12.4 | CC(C)n1cc(C(=O)c2ccnc(NC(=O)Cc3cccc(OC(F)(F)F)c3)c2)c2cncnc21 [Example 154, N-(4-{[7-(propan-2-yl)-7H-pyrrolo[2,3-d]pyrimidin-5-yl]carbonyl}pyridin-2-yl)-2-[3-(trifluoromethoxy)phenyl]acetamide]
52.9 | CC1(n2cc(C(=O)c3cc(NC(=O)Cc4cccc(C(F)(F)F)c4)ccn3)c3cncnc32)COC1 [Example 166, N-(2-{[7-(3-methyloxetan-3-yl)-7H-pyrrolo[2,3-d]pyrimidin-5-yl]carbonyl}pyridin-4-yl)-2-[3-(trifluoromethyl)phenyl]acetamide]
147 | C[C@@H](CO)n1cc(C(=O)c2cc(NC(=O)Cc3ccc(Cl)cc3)ccn2)c2cncnc21 [Example 16, 2-(4-chlorophenyl)-N-[2-({7-[(2S)-1-hydroxypropan-2-yl]-7H-pyrrolo[2,3-d]pyrimidin-5-yl}carbonyl)pyridin-4-yl]acetamide]
332 | CC(CO)n1cc(C(=O)c2ccnc(NC(=O)Cc3ccc(C#N)cc3)c2)c2cncnc21 (single isomer, unassigned) [Example 34, 2-(4-cyanophenyl)-N-(4-{[7-(1-hydroxypropan-2-yl)-7H-pyrrolo[2,3-d]pyrimidin-5-yl]carbonyl}pyridin-2-yl)acetamide]
430 | O=C(Cc1ccc(Cl)c(Cl)c1)Nc1ccnc(C(=O)c2cn(C(CO)CO)c3ncncc23)c1 [Example 99, 2-(3,4-dichlorophenyl)-N-(2-{[7-(1,3-dihydroxypropan-2-yl)-7H-pyrrolo[2,3-d]pyrimidin-5-yl]carbonyl}pyridin-4-yl)acetamide]
188 | O=C(Cn1cc(C(F)(F)F)nn1)Nc1cc(C(=O)c2cn(CCO)c3ncncc23)ccn1 [Example 137, N-(4-{[7-(2-hydroxyethyl)-7H-pyrrolo[2,3-d]pyrimidin-5-yl]carbonyl}pyridin-2-yl)-2-[4-(trifluoromethyl)-1H-1,2,3-triazol-1-yl]acetamide]
99.8 | CC1(n2cc(C(=O)c3cc(NC(=O)Cc4ccc(C(F)(F)F)c(F)c4)ccn3)c3cncnc32)COC1 [Example 170, 2-[3-fluoro-4-(trifluoromethyl)phenyl]-N-(2-{[7-(3-methyloxetan-3-yl)-7H-pyrrolo[2,3-d]pyrimidin-5-yl]carbonyl}pyridin-4-yl)acetamide]
202 | C[C@@H](CO)n1cc(C(=O)c2cc(NC(=O)Cc3ccc(F)cn3)ccn2)c2cncnc21 [Example 18, 2-(5-fluoropyridin-2-yl)-N-[2-({7-[(2S)-1-hydroxypropan-2-yl]-7H-pyrrolo[2,3-d]pyrimidin-5-yl}carbonyl)pyridin-4-yl]acetamide]
10.7 | CC(C)(C)n1cc(C(=O)c2cc(NC(=O)Cn3ccc(C(F)(F)F)n3)ccn2)c2cncnc21 [Example 41, N-{2-[(7-tert-butyl-7H-pyrrolo[2,3-d]pyrimidin-5-yl)carbonyl]pyridin-4-yl}-2-[3-(trifluoromethyl)-1H-pyrazol-1-yl]acetamide]
11.5 | CC(C)(C)n1cc(C(=O)c2cc(NC(=O)Cc3ccc(Cl)cc3)ccn2)c2cncnc21 [Example 42, N-{2-[(7-tert-butyl-7H-pyrrolo[2,3-d]pyrimidin-5-yl)carbonyl]pyridin-4-yl}-2-(4-chlorophenyl)acetamide]
6.43 | CC(C)n1cc(C(=O)c2cc(NC(=O)Cc3ccc(Cl)cc3)ccn2)c2cnc(N)nc21 [Example 87, N-(2-{[2-amino-7-(propan-2-yl)-7H-pyrrolo[2,3-d]pyrimidin-5-yl]carbonyl}pyridin-4-yl)-2-(4-chlorophenyl)acetamide]
